Measured values from US20250312462A1, “PAK1 DEGRADERS AND METHODS OF USE THEREOF” (INSTITUTE FOR CANCER RESEARCH D/B/A THE RESEARCH INSTITUTE …, priority 2022, published 2025).

Legend:
Assay in all cases: KINOMEscan
CAMK2D = CAMK2D (Homo sapiens, UniProt Q13557); conditions: read-out: Percent Control
Experimental: (§1) The kinase engagement assay (KINOMEscan®) was performed by DiscoverX assessing binding abilities toward a set of kinases.

[1] = target: ABL1(H396P)-nonphosphorylated (Homo sapiens, UniProt P00519, H396P); conditions: read-out: Percent Control
Experimental: as §1

DRAK1 = DRAK1 (Homo sapiens, UniProt Q9UEE5); conditions: read-out: Percent Control
DRAK1, sequence (Q9UEE5 whole entry): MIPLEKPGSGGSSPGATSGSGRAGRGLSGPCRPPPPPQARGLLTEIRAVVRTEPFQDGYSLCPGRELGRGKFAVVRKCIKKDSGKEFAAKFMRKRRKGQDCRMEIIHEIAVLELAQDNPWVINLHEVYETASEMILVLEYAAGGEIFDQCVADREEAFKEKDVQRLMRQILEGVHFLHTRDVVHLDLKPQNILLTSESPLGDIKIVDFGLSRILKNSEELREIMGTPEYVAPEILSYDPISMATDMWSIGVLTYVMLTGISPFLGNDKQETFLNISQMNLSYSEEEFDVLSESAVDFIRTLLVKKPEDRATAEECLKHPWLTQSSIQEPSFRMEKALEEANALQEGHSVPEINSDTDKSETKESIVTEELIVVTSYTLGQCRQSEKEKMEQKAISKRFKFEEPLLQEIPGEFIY
Experimental: as §1

PIK3CA(C420R) = PIK3CA(C420R) (Homo sapiens, UniProt P42336, C420R); conditions: read-out: Percent Control
PIK3CA(C420R), sequence (P42336 whole entry C420R): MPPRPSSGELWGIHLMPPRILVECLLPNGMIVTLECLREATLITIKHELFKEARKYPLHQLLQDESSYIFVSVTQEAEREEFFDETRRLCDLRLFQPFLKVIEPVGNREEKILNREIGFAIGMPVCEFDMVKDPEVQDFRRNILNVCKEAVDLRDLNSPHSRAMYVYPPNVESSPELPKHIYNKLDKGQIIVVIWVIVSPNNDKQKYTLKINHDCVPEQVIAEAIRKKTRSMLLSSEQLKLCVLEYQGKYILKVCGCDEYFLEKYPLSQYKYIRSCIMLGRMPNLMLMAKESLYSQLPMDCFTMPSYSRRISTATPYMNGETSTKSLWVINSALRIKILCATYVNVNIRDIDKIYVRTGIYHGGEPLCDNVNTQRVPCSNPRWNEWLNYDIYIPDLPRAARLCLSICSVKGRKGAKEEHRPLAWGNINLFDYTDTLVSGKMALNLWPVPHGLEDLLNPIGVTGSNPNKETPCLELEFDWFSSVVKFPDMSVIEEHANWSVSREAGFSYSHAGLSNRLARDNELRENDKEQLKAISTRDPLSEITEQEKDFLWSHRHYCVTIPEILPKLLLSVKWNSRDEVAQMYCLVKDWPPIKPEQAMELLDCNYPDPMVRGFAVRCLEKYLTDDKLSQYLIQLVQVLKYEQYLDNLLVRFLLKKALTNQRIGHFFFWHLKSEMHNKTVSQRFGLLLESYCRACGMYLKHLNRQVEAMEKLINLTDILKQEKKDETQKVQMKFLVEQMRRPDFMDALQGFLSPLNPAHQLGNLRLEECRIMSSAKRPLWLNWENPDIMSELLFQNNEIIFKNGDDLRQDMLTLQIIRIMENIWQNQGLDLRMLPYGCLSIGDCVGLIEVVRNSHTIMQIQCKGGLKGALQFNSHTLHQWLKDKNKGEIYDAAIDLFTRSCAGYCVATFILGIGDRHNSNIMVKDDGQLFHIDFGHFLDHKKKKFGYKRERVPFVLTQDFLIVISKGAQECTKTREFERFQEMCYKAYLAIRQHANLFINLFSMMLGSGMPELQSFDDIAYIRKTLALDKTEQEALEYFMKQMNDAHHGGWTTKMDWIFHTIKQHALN
Experimental: as §1

HPK1 = HPK1 (Homo sapiens, UniProt Q92918); conditions: read-out: Percent Control
Experimental: as §1

MAK = MAK (Homo sapiens, UniProt P20794); conditions: read-out: Percent Control
Experimental: as §1

DYRK1B = DYRK1B (Homo sapiens, UniProt Q9Y463); conditions: read-out: Percent Control
DYRK1B, sequence (Q9Y463 whole entry): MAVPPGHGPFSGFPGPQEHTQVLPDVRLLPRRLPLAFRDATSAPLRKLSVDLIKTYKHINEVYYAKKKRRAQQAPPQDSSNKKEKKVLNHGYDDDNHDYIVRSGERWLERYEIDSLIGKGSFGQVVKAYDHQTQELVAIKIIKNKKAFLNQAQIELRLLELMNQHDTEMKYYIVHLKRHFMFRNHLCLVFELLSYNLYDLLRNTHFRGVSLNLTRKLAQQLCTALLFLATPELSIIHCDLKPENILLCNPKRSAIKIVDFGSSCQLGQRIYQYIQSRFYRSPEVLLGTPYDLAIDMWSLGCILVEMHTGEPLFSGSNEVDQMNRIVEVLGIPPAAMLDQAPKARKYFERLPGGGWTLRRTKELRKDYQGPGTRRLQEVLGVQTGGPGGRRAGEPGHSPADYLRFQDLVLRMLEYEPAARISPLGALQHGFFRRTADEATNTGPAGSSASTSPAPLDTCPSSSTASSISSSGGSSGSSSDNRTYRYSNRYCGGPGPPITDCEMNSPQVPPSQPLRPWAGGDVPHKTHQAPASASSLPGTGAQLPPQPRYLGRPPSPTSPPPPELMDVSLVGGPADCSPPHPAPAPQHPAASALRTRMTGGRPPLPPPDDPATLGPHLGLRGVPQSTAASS
Experimental: as §1

CDK3 = CDK3 (Homo sapiens, UniProt Q00526); conditions: read-out: Percent Control
CDK3, sequence (Q00526 whole entry): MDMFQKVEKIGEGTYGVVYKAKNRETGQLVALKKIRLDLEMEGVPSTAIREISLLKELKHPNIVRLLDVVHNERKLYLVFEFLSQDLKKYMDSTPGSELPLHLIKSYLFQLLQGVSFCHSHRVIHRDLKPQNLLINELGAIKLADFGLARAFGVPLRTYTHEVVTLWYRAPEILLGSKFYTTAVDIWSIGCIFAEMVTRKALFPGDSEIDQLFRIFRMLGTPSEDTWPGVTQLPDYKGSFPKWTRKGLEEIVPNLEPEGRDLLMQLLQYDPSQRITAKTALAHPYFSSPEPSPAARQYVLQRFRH
Experimental: as §1

ALK(C1156Y) = ALK(C1156Y) (Homo sapiens, UniProt Q9UM73, C1156Y); conditions: read-out: Percent Control
ALK(C1156Y), sequence (Q9UM73 19-1620 C1156Y): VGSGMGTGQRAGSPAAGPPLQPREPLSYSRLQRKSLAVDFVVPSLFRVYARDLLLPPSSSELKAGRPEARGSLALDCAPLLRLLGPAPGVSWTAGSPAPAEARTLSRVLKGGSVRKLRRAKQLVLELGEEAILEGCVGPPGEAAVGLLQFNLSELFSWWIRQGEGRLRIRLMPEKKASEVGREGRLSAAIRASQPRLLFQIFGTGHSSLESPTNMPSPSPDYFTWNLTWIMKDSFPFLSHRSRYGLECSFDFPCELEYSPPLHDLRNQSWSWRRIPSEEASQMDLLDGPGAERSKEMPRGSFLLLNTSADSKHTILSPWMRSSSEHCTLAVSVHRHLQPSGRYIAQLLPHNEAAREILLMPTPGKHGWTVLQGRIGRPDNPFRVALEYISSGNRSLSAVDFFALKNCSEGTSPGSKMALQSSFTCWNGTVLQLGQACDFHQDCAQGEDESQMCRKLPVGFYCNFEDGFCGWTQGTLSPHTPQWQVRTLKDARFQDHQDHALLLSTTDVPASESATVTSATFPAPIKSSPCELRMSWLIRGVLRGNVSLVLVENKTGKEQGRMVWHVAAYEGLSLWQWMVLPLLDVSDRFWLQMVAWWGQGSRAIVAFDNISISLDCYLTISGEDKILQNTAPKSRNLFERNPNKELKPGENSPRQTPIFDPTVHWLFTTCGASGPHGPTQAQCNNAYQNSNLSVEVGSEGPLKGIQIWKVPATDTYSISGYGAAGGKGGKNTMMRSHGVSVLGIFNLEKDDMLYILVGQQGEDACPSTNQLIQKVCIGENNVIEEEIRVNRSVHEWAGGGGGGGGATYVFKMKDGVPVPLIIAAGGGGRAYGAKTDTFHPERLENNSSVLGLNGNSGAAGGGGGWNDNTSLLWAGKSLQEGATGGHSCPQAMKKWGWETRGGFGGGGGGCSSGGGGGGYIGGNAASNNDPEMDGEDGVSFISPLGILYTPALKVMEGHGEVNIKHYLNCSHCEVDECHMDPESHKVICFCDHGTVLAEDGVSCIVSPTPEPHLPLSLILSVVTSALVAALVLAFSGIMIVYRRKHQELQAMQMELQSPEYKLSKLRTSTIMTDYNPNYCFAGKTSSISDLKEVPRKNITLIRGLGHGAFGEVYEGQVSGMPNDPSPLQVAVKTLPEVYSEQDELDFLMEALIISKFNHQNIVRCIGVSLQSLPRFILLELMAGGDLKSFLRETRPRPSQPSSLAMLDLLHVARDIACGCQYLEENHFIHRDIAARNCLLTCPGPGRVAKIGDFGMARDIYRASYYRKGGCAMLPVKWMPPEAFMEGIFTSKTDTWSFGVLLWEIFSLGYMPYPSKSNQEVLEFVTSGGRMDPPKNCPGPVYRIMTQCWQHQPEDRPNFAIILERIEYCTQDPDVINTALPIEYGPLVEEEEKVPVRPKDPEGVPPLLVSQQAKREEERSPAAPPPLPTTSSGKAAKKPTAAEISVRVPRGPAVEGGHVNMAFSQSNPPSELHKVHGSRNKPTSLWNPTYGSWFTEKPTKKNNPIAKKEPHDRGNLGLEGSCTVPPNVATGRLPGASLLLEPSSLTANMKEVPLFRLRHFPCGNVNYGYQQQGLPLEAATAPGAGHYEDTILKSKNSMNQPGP
Experimental: as §1

[2] = target: EGFR(L747-S752del, P753S) (Homo sapiens, UniProt P00533, DEL747-752/P753S); conditions: read-out: Percent Control
Experimental: as §1

CDKL1 = CDKL1 (Homo sapiens, UniProt Q00532); conditions: read-out: Percent Control
Experimental: as §1

FLT3(ITD, D835V) = conditions: 10 μM
Experimental: as §1

ARK5 = ARK5 (Homo sapiens, UniProt O60285); conditions: read-out: Percent Control
Experimental: as §1

PHKG1 = PHKG1 (Homo sapiens, UniProt Q16816); conditions: read-out: Percent Control
Experimental: as §1

PFCDPK1(P. falciparum) = target: T1, PFCDPK1(P. falciparum) (Plasmodium falciparum, UniProt P62344); type: binding; conditions: read-out: Percent Control
T1 construct: purchased DiscoverX
T1 sequence (P62344 whole entry): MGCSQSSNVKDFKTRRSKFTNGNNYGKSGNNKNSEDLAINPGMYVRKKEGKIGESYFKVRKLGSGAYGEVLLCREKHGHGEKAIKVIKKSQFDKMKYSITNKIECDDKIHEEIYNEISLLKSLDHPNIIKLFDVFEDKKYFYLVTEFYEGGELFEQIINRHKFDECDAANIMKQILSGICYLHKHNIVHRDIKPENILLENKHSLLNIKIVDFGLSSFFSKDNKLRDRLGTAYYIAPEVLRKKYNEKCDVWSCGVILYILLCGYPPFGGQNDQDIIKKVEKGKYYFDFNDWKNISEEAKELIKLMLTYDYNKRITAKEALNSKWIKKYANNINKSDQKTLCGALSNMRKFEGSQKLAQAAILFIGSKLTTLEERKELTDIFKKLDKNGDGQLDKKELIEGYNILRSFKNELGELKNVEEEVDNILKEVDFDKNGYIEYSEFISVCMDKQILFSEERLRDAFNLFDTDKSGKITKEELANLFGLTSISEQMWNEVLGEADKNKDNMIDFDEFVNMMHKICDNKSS

CAMK2D, sequence (Q13557 whole entry): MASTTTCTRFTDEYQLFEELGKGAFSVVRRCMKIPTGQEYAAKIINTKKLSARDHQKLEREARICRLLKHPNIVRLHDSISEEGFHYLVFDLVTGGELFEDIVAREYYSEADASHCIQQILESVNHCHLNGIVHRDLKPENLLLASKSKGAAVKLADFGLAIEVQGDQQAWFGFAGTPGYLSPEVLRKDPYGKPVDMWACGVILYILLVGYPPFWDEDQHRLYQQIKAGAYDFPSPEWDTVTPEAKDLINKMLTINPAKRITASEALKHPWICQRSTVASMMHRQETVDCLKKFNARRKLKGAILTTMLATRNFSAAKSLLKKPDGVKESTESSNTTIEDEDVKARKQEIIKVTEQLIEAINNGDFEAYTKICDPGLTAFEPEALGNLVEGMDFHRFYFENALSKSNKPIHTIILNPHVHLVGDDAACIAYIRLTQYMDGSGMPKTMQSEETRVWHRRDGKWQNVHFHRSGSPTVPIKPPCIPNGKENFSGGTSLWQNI

## O=C1CCC(N2C(=O)c3cccc(NCCCCCCCCNC(=O)N4CC[C@H](NC5=Nc6cc(F)ccc6N(CC(F)F)c6ccc(Cl)cc65)C4)c3C2=O)C(=O)N1 (stereo partly drawn) [BJG-05-039, (3S)-3-((2-Chloro-5-(2,2-difluoroethyl)-8-fluoro-5H-dibenzo[b,e][1,4]diazepin-11-yl)amino)-N-(8-((2-(2,6-dioxopiperidin-3-yl)-1,3-dioxoisoindolin-4-yl)amino)octyl)pyrrolidine-1-carboxamide]
CAMK2D
  remaining binding at 10 µM: 45%
[1]
  remaining binding at 10 µM: 98%
DRAK1
  remaining binding at 10 µM: 59%
PIK3CA(C420R)
  remaining binding at 10 µM: 100%
HPK1
  remaining binding at 10 µM: 92%
MAK
  remaining binding at 10 µM: 98%
DYRK1B
  remaining binding at 10 µM: 100%
CDK3
  remaining binding at 10 µM: 74%
ALK(C1156Y)
  remaining binding at 10 µM: 100%
[2]
  remaining binding at 10 µM: 82%
CDKL1
  remaining binding at 10 µM: 99%
FLT3(ITD, D835V)
  Percent Control: 95
ARK5
  remaining binding at 10 µM: 45%
PHKG1
  remaining binding at 10 µM: 65%
PFCDPK1(P. falciparum)
  remaining binding at 10 µM: 98%
